Results on seven substances are retold here after patent publication US10406218B2 (priority 2014, dated 2019).

What all share (type): cell-based, human
The test system of assay [1] is T cells of LTBI and HC donors. Nature of the assay: antigen reactivity in LTBI vs HC donors (LTBI-specific or crossreactive). As to conditions: response frequency and magnitude in LTBI vs HC donors, FIG. 10. An excerpt:
The data herein implies that preexisting immunity and occasional boosting might be provided by exposure to NTMs, in a low MTB-complex exposure population such as the one from the general San Diego area. This might be viewed as desirable, or alternatively contributing an undesired confounding factor in evaluation of vaccination strategies. Regardless, whether or not preexisting, non-TB-complex related reactivity is present in the general population is an important issue has implication for the development of vaccination strategies. To further investigate this issue, epitope reactivity data (Lindestamm-Arlehamn et al, 2012) was mapped back to the specific antigens from which the epitopes were derived. Antigens recognized by 2 or more donors were further categorized as LTBI-specific or crossreactive according to the following criteria; antigens were categorized as LTBI-specific if there was a lack of reactivity in HC individuals, or if the ratio between response frequency and total SFC for LTBI/HC were >4. All other antigens were categorized as crossreactive.

Another assay deals with CD4+ memory T cells.
Assay [2] deals with IL-10 production by cells of HC donors. As to conditions: for IL-10 SFC: HC donors; for # resp IL-10: number of responding HC donors out of # tested (5 or 6).
The subject of assay [3] is IFNγ production by cells of HC donors. Kind of assay: IFNγ production (SFC) in HC donors in response to broadly conserved peptides. The following applies: for IFNg SFC: HC donors; for # resp IFNg: number of responding HC donors out of # tested (5 or 6). How it is done:
To test this hypothesis, the HLA binding capacity of the 4241 broadly conserved peptides for common HLA class II alleles was predicted. Next peptides were selected predicted to bind with high affinity to alleles expressed in representative HC donors were tested for IL-10 production. Several frequently recognized IL-10 producing peptides could be identified (FIG. 13A), none of which produced a significant amount of IFNγ (FIG. 13B).

As for “Rv3804c: MTB antigen currently included in TB vaccines in clinical development”, the “antigen reactivity category (LTBI-specific or crossreactive)” value in assay [1] is recorded as “widely cross-reactive”.

Take QAAVVRFQEAANKQK [CFP1052-66]: the “epitope-specific cells in CD4+ naive subset or CD4+ memory subset of control donors” value with CD4+ memory T cells is “No epitope-specific cells were detected”. Also, in the assay with CD4+ memory T cells (5 LTBI donors, median (interquartile range 0.03-0.33)), the “frequency of epitope-specific CD4+ memory T cells, median” value is given as 0.09.

FAIMFEALFILTTVD [Peptide 3580.0006]: in assay [2], the “IL-10 SFC” value amounted to 915 SFC and the “# resp IL-10” value was 5. Also, in assay [3], the “IFNg SFC” value is 32 SFC and the “# resp IFNg” value stood at 0.

Regarding ASVSKQFTATAILLL [Peptide 3580.0013], in assay [2], the “IL-10 SFC” value came to 918 SFC and the “# resp IL-10” value was determined as 4. In assay [3], the “IFNg SFC” value was 23 SFC and the “# resp IFNg” value was 0.

Take ASCKYMKMITPAALL [Peptide 3580.0015]: in assay [2], the “IL-10 SFC” value is 730 SFC and the “# resp IL-10” value turned out to be 4. Further, in assay [3], the “IFNg SFC” value worked out at 32 SFC and the “# resp IFNg” value worked out at 0.

Turning to ASGLIFGWLAFLLVF [Peptide 3580.0018], in assay [2], the “IL-10 SFC” value is reported as 652 SFC and the “# resp IL-10” value is reported as 4. Also, in assay [3], the “IFNg SFC” value was found to be 20 SFC and the “# resp IFNg” value worked out at 0.

With DRIAQLLVQRVELVE [Peptide 3580.0009], in assay [2], the “IL-10 SFC” value was determined as 1018 SFC and the “# resp IL-10” value worked out at 5. In assay [3], the “IFNg SFC” value is reported as 50 SFC and the “# resp IFNg” value was found to be 0.
